Laboratory results published in patent US7229996B2, “Rifamycin derivatives” (Cumbre Pharmaceuticals Inc., priority 2004, dated 2007).
In brackets after ≈: the same amount, converted by molar mass.

Columns and labels:
Assay in all cases: MIC by microbroth dilution (NCCLS)
Assay type in all cases: cell-based
[1] = test system: Staphylococcus epidermidis ATCC 12228; details: S. epidermidis ATCC 12228, Rif-S
[2] = test system: Streptococcus pneumoniae ATCC6303; details: S. pneumoniae ATCC6303, Rif-S; THY Broth with catalase, 5% CO2
[3] = test system: Escherichia coli ATCC25922; details: E. coli ATCC25922, Rif-S; Cation-Adjusted Mueller-Hinton Broth
[4] = test system: Enterococcus faecalis ATCC29212; details: E. faecalis ATCC29212, Rif-S; BHI Broth
[5] = test system: Staphylococcus aureus ATCC29213; details: S. aureus ATCC29213, Rif-S; Cation-Adjusted Mueller-Hinton Broth, 37° C.
[6] = test system: Haemophilus influenzae ATCC10211; details: H. influenzae ATCC10211, Rif-S; BHI Broth with NAD and hematin
[7] = test system: Streptococcus pyogenes ATCC19615; details: S. pyogenes ATCC19615, Rif-S; THY Broth
[8] = test system: Staphylococcus aureus ATCC29213 RpoB^H481Y
Procedure: (§1) Representative compounds were assayed for antimicrobial activity as follows: Minimum Inhibitory Concentrations (MICs) were determined by the microbroth dilution method as per NCCLS guidelines (National Committee for Clinical Laboratory Standards 2000), except that all growth incubations were conducted at 37° C. Bacterial cultures were tested in the following bacteriological media: S. aureus, S. epidermidis, and E. coli in Cation-Adjusted Mueller-Hinton Broth, S. pneumoniae in THY Broth supplemented with 1 mg/mL catalase under 5% CO2 atmosphere, S. pyogenes in THY Broth, E. faecalis in BHI Broth, H. influenzae in BHI Broth supplemented with 0.75 μL of 1 mg/mL NAD and 150 μL of 1 mg/ml hematin per 5 mL, and M. smegmatis in Middlebrook Broth plus ADC Enrichment.
(§2) S. aureus ATCC 29213 RpoB^H481Y is a rifampin-resistant strain with a mutation in RNA polymerase. […] S. aureus ATCC 29213 GyrA^S84LParC^S80F is a quinolone-resistant strain with mutations to both DNA gyrase and topoisomerase IV.

[9] = test system: Staphylococcus aureus ATCC29213 GyrA^S84L ParC^S80F; details: S. aureus ATCC29213 GyrA^S84L ParC^S80F, FQ-R
Procedure: as §1, §2

[10] = test system: Staphylococcus aureus ATCC29213 RpoB^D471Y
Procedure: as §1, §2

[11] = Staphylococcus aureus, ATCC29213

## CO[C@H]1/C=C/O[C@@]2(C)Oc3c(C)c(O)c4c(O)c(c(/C=N/N5CCN(C)CC5)c(O)c4c3C2=O)NC(=O)/C(C)=C\C=C\[C@H](C)[C@H](O)[C@@H](C)[C@@H](O)[C@@H](C)[C@H](OC(C)=O)[C@@H]1C [Rifampin]
[1]
  Antimicrobial activity (MIC range): 0.03 µg/mL
[2]
  Antimicrobial activity (MIC range): 0.061 µg/mL
[3]
  Antimicrobial activity (MIC range): 16 µg/mL
[4]
  Antimicrobial activity (MIC range): 0.98 µg/mL
[5]
  Antimicrobial activity (MIC range): 8 ng/mL
[6]
  Antimicrobial activity (MIC range): 0.24 µg/mL
[7]
  Antimicrobial activity (MIC range): 0.013 µg/mL
[8]; S. aureus ATCC29213 RpoB^H481Y, Rif-R
  Antimicrobial activity (MIC range): >64 µg/mL
[8]; [11]
  MIC: > 64 µg/mL
[9]
  Antimicrobial activity (MIC range): 8 ng/mL
[10]; S. aureus ATCC29213 RpoB^D471Y, Rif-R
  Antimicrobial activity (MIC range): 8 µg/mL
[10]; [11]
  MIC: 8 µg/mL (≈ 9.72 µM)
